Data from patent publication US20070021391A1, “Preventive/remedy for urinary disturbance” (priority 2003, published 2007).
pIC50: −log10 of the molar value. Where two headings read alike, the source gives them in different places.

How the values were obtained:
[1] = test system: butyrylcholine esterase/acetylcholine esterase; details: Literature 7; species not given; cited from earlier work
Butyrylcholine esterase [2] = biological target: Butyrylcholine esterase (Rattus norvegicus, UniProt Q9JKC1); details: Literature 6, read-out: Butyrylcholine esterase inhibitory activity (IC50); cited from earlier work
Acetylcholine esterase [3] = biological target: T1, Acetylcholine esterase (Rattus norvegicus, UniProt P37136); details: Literature 6, read-out: Acetylcholine esterase inhibitory activity (IC50); cited from earlier work
T1 sequence (P37136 32-614): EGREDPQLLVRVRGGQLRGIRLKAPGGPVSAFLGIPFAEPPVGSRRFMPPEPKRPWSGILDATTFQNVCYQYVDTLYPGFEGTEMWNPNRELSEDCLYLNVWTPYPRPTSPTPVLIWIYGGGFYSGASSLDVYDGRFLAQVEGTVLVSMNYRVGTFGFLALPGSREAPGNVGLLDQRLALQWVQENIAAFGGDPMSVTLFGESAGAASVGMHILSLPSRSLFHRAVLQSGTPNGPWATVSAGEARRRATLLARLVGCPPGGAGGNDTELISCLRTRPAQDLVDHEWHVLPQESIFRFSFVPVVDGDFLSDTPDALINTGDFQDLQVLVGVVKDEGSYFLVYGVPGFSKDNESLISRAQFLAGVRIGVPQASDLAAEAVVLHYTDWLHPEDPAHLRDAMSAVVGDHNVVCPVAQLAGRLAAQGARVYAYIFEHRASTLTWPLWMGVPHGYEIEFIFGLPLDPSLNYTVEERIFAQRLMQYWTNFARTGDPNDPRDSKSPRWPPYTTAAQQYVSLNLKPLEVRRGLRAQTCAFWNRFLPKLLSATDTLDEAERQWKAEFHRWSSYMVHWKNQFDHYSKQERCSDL

bladder muscle = test system: bladder muscle; design: species or system guinea pig; details: for Tension (%): 30 minutes, change of basic tension, 100 mM KCl contraction = 100%
Butyrylcholine esterase [4] = biological target: Butyrylcholine esterase (Equus caballus, UniProt P81908); details: read-out: Butyrylcholine esterase inhibitory activity (IC50); cited from earlier work
Acetylcholine esterase [5] = biological target: Acetylcholine esterase (Electrophorus electricus, UniProt O42275); details: Electric eel; Literature 5 (tacrine line prints 6); read-out: Acetylcholine esterase inhibitory activity (IC50); cited from earlier work
[6] = test system: Hartley male guinea pig, urethane anesthesia; assay: Pressure/flow study using guinea pig (Example 3); assay type: in vivo; details: for Amount of urination, proportion for value before administration (%) / At maximum urine flow rate Inner pressure of bladder, proportion for value before administration (%) / Maximum urine flow rate, proportion for value before administration (%): i.v.; for Bladder compliance, proportion for value before administration (%) / Bladder volume, proportion for value before administration (%): iv; for change of the parameters at urination and at collection of urine (text): intravenous administration
Procedure: A Hartley male guinea pig of 5 weeks old (Japan SLC) was used. After urethane anesthesia, the medial incision of the lower abdomen was carried out, and the bladder was exposed. Two injection needles (20G) with which a polyethylene tube (PE-100) was linked were inserted in the bladder, and one needle was used for injection of saline and another needle was used for measurement of the inner pressure of the bladder. The injection of saline was continuously carried out at a rate of 18 mL/h using a syringe pump (SP-100S, JMS, and Hiroshima), the injection was stopped after intermittent urination was confirmed 3 times at minimum, and the saline in the bladder was removed by suction. Injection was started again, and the injection was stopped when the raise of the inner pressure of the bladder just before urination was confirmed. The amount of urine excreted was measured by an electronic weighing machine (HX-400, A&D, and Tokyo) and the inner pressure of the bladder was measured using a pressure transducer (AP641G, NIPPON KODEN Corporation). The analogue data of the weight of urine and the inner pressure of the bladder were inputted in a multi-channel data analyzer (MP-100A-CE, Biopac systems), and analyzed by a proprietary software (Acqknowledge, Biopac systems). The sampling interval of data was 0.1 second and a low pass filter was applied to the data of discharge amount and urine flow rate at 0.5 Hz in order to remove noise. A delay time of 0.1 second in weighing the urine was rectified, and the urine flow rate was determined by differentiating the value of discharge amount. After a value before twice administration of the drug was measured, the drugs (the compound A, distigmine, neostigigmine and bethanechol) were intravenously administrated. Saline in the bladder was extracted after 10 minutes of administration of the compound A, bethanechol and neostigigmine and after 30 minutes of administration of distigmine, and injection was started again to measure data. The drugs were dissolved with distilled water so that administration volume was 0.5 mL/kg. Parameters (bladder volume, the amount of urination, the maximum urine flow rate, the inner pressure of the bladder at the maximum urine flow, bladder compliance) below were measured. The bladder compliance was calculated from intersection point (the threshold of bladder volume, threshold pressure) which was obtained by determining regression line in the respective curves of the inner pressure of the bladder at collection of urine and urinary reflex. The change rate before and after administration of the drug was calculated for the respective parameters and the calibration of significant difference was carried out by a solvent administration group and Dunnett calibration (Table 6 and Table 7).

[7] = biological target: T2, acetylcholine esterase of human erythrocyte origin (Homo sapiens, UniProt P22303); assay: biochemical; assay type: biochemical
T2 construct: acetylcholine esterase of human erythrocyte origin; purchased Sigma, St. Louis, Mo., USA; host or cells: human erythrocytes
Procedure: The AChE inhibitory activity and the BuChE inhibitory activity were determined by a thiocholine method (Ellman method) using acetylcholine esterase of human erythrocyte origin (Sigma, St. Louis, Mo., USA) and butyrylcholine esterase of human serum origin (Biogenesis, Poole, UK). Acetylcholine esterase or butyrylcholine esterase was diluted to a concentration of 0.2 IU/mL with 80 mM tris-HCL buffers (pH=7.4) containing 0.3% bovine serum albumin (BSA) to prepare an enzyme preparation. […] The stock solution was diluted at 3-fold common ratio with 10% DMSO and 80 mM tris-HCl buffers containing 0.3% BSA. On a 96 wells microplate, 20 μL of the drug solution with a given concentration, 30 μL of 80 mM tris-HCl buffers containing 0.3% BSA and 50 μL of the enzyme preparation were distributed, and incubated at room temperature for 1 hour after shaking for 10 seconds. […] For the respective drugs, the test was repeated twice. The % of control of the increase in light absorption was calculated at each concentration with respect to the respective drugs. % of control=increase in light absorption of drug/increase in light absorption of control×100

[8] = biological target: T3, butyrylcholine esterase of human serum origin (Homo sapiens, UniProt P06276); assay: biochemical; assay type: biochemical
T3 construct: butyrylcholine esterase of human serum origin; purchased Biogenesis, Poole, UK; host or cells: human serum
T3 sequence (P06276 29-602): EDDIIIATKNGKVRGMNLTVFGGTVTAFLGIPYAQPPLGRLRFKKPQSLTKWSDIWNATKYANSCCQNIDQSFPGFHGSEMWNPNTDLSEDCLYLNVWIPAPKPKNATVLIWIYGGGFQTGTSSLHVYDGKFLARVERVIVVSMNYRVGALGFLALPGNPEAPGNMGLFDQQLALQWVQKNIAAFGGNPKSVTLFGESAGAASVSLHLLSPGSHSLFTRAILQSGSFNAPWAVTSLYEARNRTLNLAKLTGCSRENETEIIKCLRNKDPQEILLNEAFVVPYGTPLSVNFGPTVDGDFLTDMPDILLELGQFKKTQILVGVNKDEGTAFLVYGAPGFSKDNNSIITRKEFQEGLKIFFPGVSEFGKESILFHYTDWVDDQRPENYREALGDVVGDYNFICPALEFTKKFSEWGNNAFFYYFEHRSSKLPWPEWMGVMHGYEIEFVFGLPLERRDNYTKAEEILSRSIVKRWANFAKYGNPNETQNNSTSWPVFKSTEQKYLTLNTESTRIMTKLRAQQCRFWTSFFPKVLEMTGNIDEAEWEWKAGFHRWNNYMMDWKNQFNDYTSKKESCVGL

Sequence of Butyrylcholine esterase (Rattus norvegicus, UniProt Q9JKC1) (Q9JKC1 24-597): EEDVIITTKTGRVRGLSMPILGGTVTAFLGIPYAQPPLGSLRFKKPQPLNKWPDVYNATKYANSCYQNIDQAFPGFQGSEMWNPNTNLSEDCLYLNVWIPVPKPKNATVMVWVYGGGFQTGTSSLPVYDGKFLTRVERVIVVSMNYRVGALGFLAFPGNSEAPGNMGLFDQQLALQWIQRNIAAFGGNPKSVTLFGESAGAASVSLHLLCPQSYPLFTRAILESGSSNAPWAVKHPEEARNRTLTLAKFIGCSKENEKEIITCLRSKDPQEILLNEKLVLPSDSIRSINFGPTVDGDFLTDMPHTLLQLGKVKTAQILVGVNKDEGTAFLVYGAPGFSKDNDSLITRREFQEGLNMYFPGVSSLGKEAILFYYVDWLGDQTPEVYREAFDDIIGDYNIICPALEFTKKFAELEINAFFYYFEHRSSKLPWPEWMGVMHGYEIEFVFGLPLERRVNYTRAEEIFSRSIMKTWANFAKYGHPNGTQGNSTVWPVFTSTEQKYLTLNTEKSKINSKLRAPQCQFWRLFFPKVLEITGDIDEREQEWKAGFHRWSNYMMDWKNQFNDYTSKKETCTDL
Sequence of Butyrylcholine esterase (Equus caballus, UniProt P81908) (P81908 whole entry): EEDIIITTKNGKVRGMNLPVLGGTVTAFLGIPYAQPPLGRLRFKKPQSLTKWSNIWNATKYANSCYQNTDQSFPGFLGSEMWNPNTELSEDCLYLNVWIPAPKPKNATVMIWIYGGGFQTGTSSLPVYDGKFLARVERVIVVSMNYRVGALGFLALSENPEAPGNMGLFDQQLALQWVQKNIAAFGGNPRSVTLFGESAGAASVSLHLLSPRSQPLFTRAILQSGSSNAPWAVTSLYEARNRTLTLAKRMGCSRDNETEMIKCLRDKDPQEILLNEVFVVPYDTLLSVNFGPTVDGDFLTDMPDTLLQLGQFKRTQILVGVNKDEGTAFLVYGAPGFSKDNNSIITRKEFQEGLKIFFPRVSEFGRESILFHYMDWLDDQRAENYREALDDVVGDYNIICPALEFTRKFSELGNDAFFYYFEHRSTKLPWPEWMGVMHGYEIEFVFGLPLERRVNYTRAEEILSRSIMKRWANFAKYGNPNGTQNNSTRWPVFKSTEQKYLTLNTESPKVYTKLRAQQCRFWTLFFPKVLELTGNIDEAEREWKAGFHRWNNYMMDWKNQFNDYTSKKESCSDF
Sequence of Acetylcholine esterase (Electrophorus electricus, UniProt O42275) (O42275 24-633): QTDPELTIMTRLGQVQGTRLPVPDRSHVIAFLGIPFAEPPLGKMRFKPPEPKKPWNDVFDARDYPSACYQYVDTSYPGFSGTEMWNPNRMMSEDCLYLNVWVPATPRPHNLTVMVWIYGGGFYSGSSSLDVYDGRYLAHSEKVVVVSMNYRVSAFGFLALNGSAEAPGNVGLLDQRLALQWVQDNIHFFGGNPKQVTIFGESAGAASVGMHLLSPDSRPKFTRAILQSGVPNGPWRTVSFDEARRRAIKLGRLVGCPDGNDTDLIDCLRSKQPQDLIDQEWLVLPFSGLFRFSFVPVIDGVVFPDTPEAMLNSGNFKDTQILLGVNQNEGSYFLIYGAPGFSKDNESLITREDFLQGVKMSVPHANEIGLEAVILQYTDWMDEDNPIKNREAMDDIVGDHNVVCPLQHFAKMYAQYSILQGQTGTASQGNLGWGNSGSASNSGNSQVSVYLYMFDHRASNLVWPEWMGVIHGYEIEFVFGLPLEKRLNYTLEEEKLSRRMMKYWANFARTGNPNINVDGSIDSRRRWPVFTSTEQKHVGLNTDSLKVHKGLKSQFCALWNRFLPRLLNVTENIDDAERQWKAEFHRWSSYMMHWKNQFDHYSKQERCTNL
T2 sequence (P22303 32-617 isoform P22303-2 limits assumed): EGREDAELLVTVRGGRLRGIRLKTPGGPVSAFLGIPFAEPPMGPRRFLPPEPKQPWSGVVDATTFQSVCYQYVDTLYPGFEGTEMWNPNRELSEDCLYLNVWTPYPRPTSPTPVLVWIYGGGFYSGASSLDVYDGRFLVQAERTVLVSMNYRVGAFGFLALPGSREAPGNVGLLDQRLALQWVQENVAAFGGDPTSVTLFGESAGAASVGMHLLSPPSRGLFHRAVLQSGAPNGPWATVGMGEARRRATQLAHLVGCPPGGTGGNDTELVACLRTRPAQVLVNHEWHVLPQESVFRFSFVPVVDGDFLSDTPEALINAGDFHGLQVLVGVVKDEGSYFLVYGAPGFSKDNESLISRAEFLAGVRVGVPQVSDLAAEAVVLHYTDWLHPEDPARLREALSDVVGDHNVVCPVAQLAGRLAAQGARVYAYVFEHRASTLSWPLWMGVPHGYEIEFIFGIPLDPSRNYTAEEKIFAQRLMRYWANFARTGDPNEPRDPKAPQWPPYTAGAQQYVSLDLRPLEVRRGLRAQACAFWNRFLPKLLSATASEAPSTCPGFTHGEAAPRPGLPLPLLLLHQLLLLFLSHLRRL

CCc1ccccc1NC(=O)Oc1ccc2c(c1)[C@]1(C)CCN(C)O[C@@H]1N2C [Ganstigmine]
Selectivity (butyrylcholine esterase/acetylcholine esterase) [1]: 115

O=C(CCC1CCN(Cc2ccccc2)CC1)c1ccc2c(c1)NCCCC2 [TAK-147]
pIC50 (Butyrylcholine esterase [2]): 4.62
pIC50 (Acetylcholine esterase [3]): 7.29

CN(C)C(=O)Oc1cccc([N+](C)(C)C)c1 [Neostigigmine]
Tension (%) (bladder muscle; 0.01 μM): −0.95 ± 0.37%
Tension (%) (bladder muscle; 0.03 μM): −0.31 ± 0.25%
Tension (%) (bladder muscle; 0.1 μM): 1.52 ± 0.37 %
Tension (%) (bladder muscle; 0.3 μM): 6.87 ± 1.25 %
Tension (%) (bladder muscle; 1 μM): 17.78 ± 2.25 %
effect on basic tension (bladder muscle; drug alone): increased basic tension significantly and concentration-dependently
pIC50 (Butyrylcholine esterase [4]): 7.00
pIC50 (Acetylcholine esterase [5]): 5.30
Amount of urination, proportion for value before administration (%) ([6]; 0.01 mg/kg): 107.7 ± 17.2%
At maximum urine flow rate Inner pressure of bladder, proportion for value before administration (%) ([6]; 0.01 mg/kg): 112.3 ± 4.2%
Maximum urine flow rate, proportion for value before administration (%) ([6]; 0.01 mg/kg): 79.4 ± 11.5%
Bladder compliance, proportion for value before administration (%) ([6]; 0.01 mg/kg): 61.5 ± 8.6%
Bladder volume, proportion for value before administration (%) ([6]; 0.01 mg/kg): 81.1 ± 8.9%
Amount of urination, proportion for value before administration (%) ([6]; 0.03 mg/kg): 91.6 ± 14.9%
At maximum urine flow rate Inner pressure of bladder, proportion for value before administration (%) ([6]; 0.03 mg/kg): 128.5 ± 10.9 %
Maximum urine flow rate, proportion for value before administration (%) ([6]; 0.03 mg/kg): 67.2 ± 9.9%
Bladder compliance, proportion for value before administration (%) ([6]; 0.03 mg/kg): 59.4 ± 9.1 %
Bladder volume, proportion for value before administration (%) ([6]; 0.03 mg/kg): 86.4 ± 7.5%
Amount of urination, proportion for value before administration (%) ([6]; 0.1 mg/kg): 58.3 ± 16.4%
At maximum urine flow rate Inner pressure of bladder, proportion for value before administration (%) ([6]; 0.1 mg/kg): 130.9 ± 8.7 %
Maximum urine flow rate, proportion for value before administration (%) ([6]; 0.1 mg/kg): 54.0 ± 13.8%
Bladder compliance, proportion for value before administration (%) ([6]; 0.1 mg/kg): 31.7 ± 7.1 %
Bladder volume, proportion for value before administration (%) ([6]; 0.1 mg/kg): 66.5 ± 14.7%
change of the parameters at urination and at collection of urine (text) [6]: lowered the bladder compliance significantly
change of the parameters at urination and at collection of urine (text) ([6]; listed as neostigigmine): did not show clear action for the amount of urination and the maximum urine flow rate and increased urination pressure significantly
inhibition of the activity of human acetylcholine esterase [7]: inhibited the activity of human acetylcholine esterase
pIC50 [8]: 6.22
inhibitory activity for human butyrylcholine esterase [8]: inhibitory activity was confirmed
